According to publication PMC5684323 (2017):

Legend:
[1] = tested on: ESE2 (SPR) (RNA, single strand) AAAAAGAAGGAAGG; experiment: SPR (Biacore), immobilised RNA; conditions: 150 mM NaCl, no Mg2+ (35 mM EDTA); 10 mM HEPES pH 7.4, 0.05% P20, 0.1% DMSO, 25 °C; 10 µM tested
[2] = tested on: STRN3 "ESE" (RNA, single strand) AAGAAGGAACGAAAGGGGAAGAAAGGGG; experiment: SPR (Biacore), immobilised RNA; conditions: 150 mM NaCl, no Mg2+ (35 mM EDTA); 10 mM HEPES pH 7.4, 0.05% P20, 0.1% DMSO, 25 °C; 10 µM tested
[3] = tested on: ESE2 RNA (NMR) (RNA, single strand) AAAAAGAAGGAAGG; experiment: 1H NMR titration; conditions: 50 mM NaCl; 10 mM MES pH 5.5, 10% D2O, 310 K
[4] = tested on: Exon 7 (RNA, mRNA element) UACAGGGUUUUAGACAAAAUCAAAAAGAAGGAAGGUGCUCACAUUCCUUAAAUUAAGGAGUAAG; experiment: SPR (Biacore), immobilised RNA; conditions: 150 mM NaCl, no Mg2+ (35 mM EDTA); 10 mM HEPES pH 7.4, 0.05% P20, 0.1% DMSO, 25 °C; 10 µM tested

binding [1]	binding [2]	binding [3]	binding [4]	SMILES
weak	weak	yes		Cc1cn2cc(-c3cc(=O)n4cc(N5CCN(C(=O)CCN)CC5)ccc4n3)cc(F)c2n1
yes	yes	yes	yes	Cc1cn2cc(-c3cc(=O)n4cc(N5CCN(C)CC5)ccc4n3)cc(F)c2n1
